One series deals with cotton plants. Put plainly: Field test on cotton plants at boll opening: defoliation ratio and boll opening after foliar spray. It is filed as in vivo. Particulars: for Defoliation ratio (%) Rep. 1 / Defoliation ratio (%) Rep. 2 / Defoliation ratio (%) Rep. 3: 20 g/ha, emulsifiable concentrate diluted with water containing 1% (v/v) COC, day 14 after the treatment; for Defoliation ratio (%) Rep. 1: replication 1 about 60% of open bolls; for Defoliation ratio (%) Rep. 2: replication 2 about 60 to 70% of open bolls; for Defoliation ratio (%) Rep. 3: replication 3 80 to 85% of open bolls; for cotton boll opening: field test, sprayed at the time of cotton boll opening. The procedure: The test results were evaluated according to the following criteria: Defoliation ratio (%)=(the number of dropped leaves/the total number of leaves examined)×100
Cotton seeds were planted and grown in the field. At the time of cotton boll opening, 2.5 parts of each of compounds […], 10 parts of Sorpol 3890 (Toho Chemical Industry Co., Ltd.), and 87.5 parts of SOLVESSO 200 (Exxon Mobile Chemical Company) were well mixed to give an emulsifiable concentrate for each compound, which was then diluted at a prescribed dose with water containing 1% (v/v) crop oil concentrate (COC), and the dilution was uniformly sprayed to the plants. Treatments were carried out with three replications. Replication 1 had about 60% of open bolls; replication 2 had about 60 to 70% of open bolls; replication 3 had 80 to 85% of open boils. The treated fields are each 4 m×6.4 m in area, and the cotton plants on day 14 after the treatment were examined for the defoliation ratio.

This note sets out measurements from patent US7115544B2, “Plant growth regulators for cotton hervest” (Sumitomo Chemical Company, Limited, priority 2001, dated 2006).

In the case of `COC(=O)COc1ccccc1Oc1cc(-n2c(=O)cc(C(F)(F)F)n(C)c2=O)c(F)cc1Cl` [Compound a-5, methyl [2-{2-chloro-4-fluoro-5-[3-methyl-2,6-dioxo-4-(trifluoromethyl)-1,2,3,6-tetrahydropyrimidin-1-yl]phenoxy}phenoxy]acetate], in the series on cotton plants, the “Defoliation ratio (%) Rep. 1” value worked out at 85%, the “Defoliation ratio (%) Rep. 2” value is 90%, the “Defoliation ratio (%) Rep. 3” value is listed as 82% and the cotton boll opening result is on record as “stimulated cotton boll opening”.
On to `COC(=O)COc1ncccc1Oc1cc(-n2c(=O)cc(C(F)(F)F)n(C)c2=O)c(F)cc1Cl` [Compound a-6, methyl [3-{2-chloro-4-fluoro-5-[3-methyl-2,6-dioxo-4-(trifluoromethyl)-1,2,3,6-tetrahydropyrimidin-1-yl]phenoxy}-2-pyridyloxy]acetate], for which, in the series on cotton plants, the “Defoliation ratio (%) Rep. 1” value is 80%, the “Defoliation ratio (%) Rep. 2” value came out at 75%, the “Defoliation ratio (%) Rep. 3” value was determined as 85% and the cotton boll opening result is given as “stimulated cotton boll opening”.
In turn, `Cn1c(C(F)(F)F)cc(=O)n(-c2cc(Oc3ccccc3OCC(=O)OC(C)(C)C)c(Cl)cc2F)c1=O` [Compound a-121, t-butyl [2-{2-chloro-4-fluoro-5-[3-methyl-2,6-dioxo-4-(trifluoromethyl)-1,2,3,6-tetrahydropyrimidin-1-yl]phenoxy}phenoxy]acetate] gave a melting point of 55.6 °C.

One may read the melting point as the temperature, or range, at which the solid turns liquid.
